Earlier results as cited in US20150079136A1, “CONTROLLED RELEASE PHARMACEUTICAL FORMULATIONS OF DIRECT THROMBIN INHIBITORS” (RUBICON RESEARCH PRIVATE LIMITED, priority 2012, published 2015).
Where a name gives a salt, the structure may show the parent alone. Read-outs that look alike come from different tables or passages of the source.

How the values were obtained:
[1] = not given; remark: listed apart in the source
[2] = not given; remark: listed apart in the source
P-glycoprotein = P-glycoprotein (Homo sapiens, UniProt P08183)
Sequence of P-glycoprotein (P08183 whole entry): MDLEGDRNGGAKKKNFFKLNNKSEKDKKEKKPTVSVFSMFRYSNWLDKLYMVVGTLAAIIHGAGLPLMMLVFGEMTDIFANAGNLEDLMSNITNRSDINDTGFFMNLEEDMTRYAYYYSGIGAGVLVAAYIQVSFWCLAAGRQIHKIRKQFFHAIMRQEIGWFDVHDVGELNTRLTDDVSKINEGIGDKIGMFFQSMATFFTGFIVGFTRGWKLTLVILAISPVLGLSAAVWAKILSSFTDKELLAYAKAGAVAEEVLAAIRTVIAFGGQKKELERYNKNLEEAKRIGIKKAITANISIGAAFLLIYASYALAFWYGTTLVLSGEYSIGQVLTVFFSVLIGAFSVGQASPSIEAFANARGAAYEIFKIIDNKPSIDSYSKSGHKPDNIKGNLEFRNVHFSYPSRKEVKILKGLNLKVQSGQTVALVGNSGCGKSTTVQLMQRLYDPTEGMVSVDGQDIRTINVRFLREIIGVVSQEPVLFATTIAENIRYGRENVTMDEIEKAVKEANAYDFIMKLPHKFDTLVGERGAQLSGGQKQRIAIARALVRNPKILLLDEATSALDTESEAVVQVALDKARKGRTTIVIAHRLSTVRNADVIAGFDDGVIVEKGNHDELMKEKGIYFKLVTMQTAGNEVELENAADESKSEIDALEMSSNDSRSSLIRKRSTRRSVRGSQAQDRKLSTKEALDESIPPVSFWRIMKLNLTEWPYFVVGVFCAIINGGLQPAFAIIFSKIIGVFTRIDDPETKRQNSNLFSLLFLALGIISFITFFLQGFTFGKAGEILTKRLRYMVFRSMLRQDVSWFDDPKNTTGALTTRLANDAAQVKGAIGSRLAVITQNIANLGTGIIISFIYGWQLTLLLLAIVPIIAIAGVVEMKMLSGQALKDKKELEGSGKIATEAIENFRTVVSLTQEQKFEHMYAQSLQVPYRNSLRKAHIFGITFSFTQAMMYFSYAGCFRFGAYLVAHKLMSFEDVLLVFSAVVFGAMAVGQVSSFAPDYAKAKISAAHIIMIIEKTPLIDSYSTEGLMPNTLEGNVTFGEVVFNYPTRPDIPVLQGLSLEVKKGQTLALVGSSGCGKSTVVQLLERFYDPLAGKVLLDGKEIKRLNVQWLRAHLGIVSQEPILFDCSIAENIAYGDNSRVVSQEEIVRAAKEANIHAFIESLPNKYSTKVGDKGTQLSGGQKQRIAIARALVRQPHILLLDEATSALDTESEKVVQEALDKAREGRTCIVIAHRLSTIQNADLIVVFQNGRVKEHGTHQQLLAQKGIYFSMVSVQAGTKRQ

| Compound | solubility in acidic media (acidic media) | solubility in neutral and basic media (neutral and basic media) | BCS class (poor aqueous solubility but good membrane permeability) | elimination half life ([1]; multiple dosing) | elimination half life ([1]; single dosing) [h] | sensitivity to light irradiation ([2]; light irradiation) | hygroscopicity ([2]; powder) | degradation in the presence of moisture ([2]; presence of moisture) | stability in the solid state ([2]; solid state) | effect of high-fat meal on the bioavailability of dabigatran ([1]; coadministration with a high-fat meal) | absolute bioavailability of dabigatran ([1]; following oral administration of dabigatran etexilate) | increase in oral bioavailability ([1]; marketed formulation, pellets taken without the capsule shell vs intact capsule) [%] | substrate of efflux transporter P-glycoprotein (P-glycoprotein) |
| --- | --- | --- | --- | --- | --- | --- | --- | --- | --- | --- | --- | --- | --- |
| CCCCCCOC(=O)NC(=N)c1ccc(NCc2nc3cc(C(=O)N(CCC(=O)OCC)c4ccccn4)ccc3n2C)cc1 [DEM, dabigatran etexilate mesylate] | rather high solubility | very poor solubility | Class II | about 8 hours | 12 to 17 | not sensitive | non-hygroscopic | predominantly undergoes degradation by hydrolytic pathways | stable |  |  |  |  |
| CCCCCCOC(=O)NC(=N)c1ccc(NCc2nc3cc(C(=O)N(CCC(=O)OCC)c4ccccn4)ccc3n2C)cc1 [dabigatran etexilate, 1-methyl-2-[N-[4-(N-n-hexyloxycarbonylamidino)phenyl]aminomethyl]benzimidazol-5-ylcarboxylic acid-N-(2-pyridyl)-N-(2 ethoxycarbonylethyl)amides] |  |  |  |  |  |  |  |  |  | no effect | 3-7% | 75 | substrate |
